Source: patent US20060257481A1, “Sustained release formulation and dosing schedule of leukotriene synthesis inhibitor for human therapy” (deCODE Genetics ehf., priority 2005, published 2006)

How the values were obtained:
Amyloid A = assay: Study DG-031-201 cross-over trial: Amyloid A in serum; format: in vivo, human; conditions: week 6, p=0.05
Method: (§1) Patients who met the study eligebility criteria were enrolled and randomized into 3 different dose-level groups: (1) 64 patients on 250 mg/day therapy with DG-031 (250 mg q.d.), vs placebo; (2) 64 patients on 500 mg/day therapy with DG-031 (250 mg b.i.d.) vs placebo; and (3) 63 patients on 750 mg/day therapy with DG-031 (250 mg t.i.d.) vs placebo. […] All patients received 3 tablets per day. Treatment periods, 4 weeks in duration each, were separated by a 2-week washout period. The placebo tablets were identical in shape, color, form and taste to the active tablets except that they contained no active drug ingredients. Treatment with DG-031 or placebo was in addition to the subject's standard care, including all medications and treatment plan as prescribed by the subject's cardiologist prior to enrolment. A total of 191 subjects were enrolled, with 172 completing all 8 visits or 8 patients short of the target of 180 patients. […]
(§2) All data were analyzed according to a pre-established statistical analysis plan (SAP) and by intention-to-treat (ITT). […] The difference between DG-031 and placebo treatment was the primary outcome, assessed separately for each of the biomarkers. […]

Lp-PLA2 = assay: Study DG-031-201 cross-over trial: Lp-PLA2; format: in vivo, human; conditions: highest dose; [3%,16%], p=0.006
Method: as §1, §2

[1] = test system: LTB4 produced by ionomycin-activated neutrophils ex vivo; assay: Study DG-031-201: LTB4 in whole blood ex vivo after ionomycin activation (ELISA); set-up: species or system human
Method: (§3) Patients who met the study eligebility criteria were enrolled and randomized into 3 different dose-level groups: (1) 64 patients on 250 mg/day therapy with DG-031 (250 mg q.d.), vs placebo; (2) 64 patients on 500 mg/day therapy with DG-031 (250 mg b.i.d.) vs placebo; and (3) 63 patients on 750 mg/day therapy with DG-031 (250 mg t.i.d.) vs placebo. […] All patients received 3 tablets per day. Treatment periods, 4 weeks in duration each, were separated by a 2-week washout period. The placebo tablets were identical in shape, color, form and taste to the active tablets except that they contained no active drug ingredients. Treatment with DG-031 or placebo was in addition to the subject's standard care, including all medications and treatment plan as prescribed by the subject's cardiologist prior to enrolment. A total of 191 subjects were enrolled, with 172 completing all 8 visits or 8 patients short of the target of 180 patients.
The primary objective was to determine whether the FLAP inhibitor has a statistically significant effect, compared to placebo, on one or more biomarkers of MI risk, including: (1) ionomycin-induced LTB4 and MPO release by neutrophils ex vivo; (2) MPO, CRP, N-tyrosine, Lp-PLA2 or amyloid A in serum, or (3) LTE4 in urine. The secondary objective was to determine whether the effect of DG-031 was dose-dependent. The tertiary objective was to assess other biomarkers (See Results). Evaluation of safety and tolerability of the drug was also a primary endpoint.
All data were analyzed according to a pre-established statistical analysis plan (SAP) and by intention-to-treat (ITT). Each arm of the study, as well as pooled sets (combining dose levels), was considered for the primary analysis. Each such set is an AB/BA cross-over design and in the primary analysis of efficacy, the levels of biomarkers of MI risk at the end of the treatment periods (visits 4 and 7) were used as primary response variables. The difference between DG-031 and placebo treatment was the primary outcome, assessed separately for each of the biomarkers. Treatment effect was tested using a two-sample t-test on the period differences for suitably transformed response variables, under an assumption of normality of the transformed data. We report treatment effect as one half of the observed mean differences in the two-sample t-test, with a 95% CI. No pre-tests for carry-over effect were performed as a part of the primary analysis. Tests for carry-over were done and are reported separately from results of primary analysis. All hypotheses were tested at a two-sided nominal significance level of 0.05 and p-values based on t-tests are reported. In addition, for the primary efficacy endpoints where the effects of the two highest doses on 10 primary variables were studied, a randomization test was performed which corrects for multiple testing and ensures that the key results are not affected by distributional concerns. In particular, 1 million permutations of the patients into the different study tracks were performed, generating a reference distribution for the maximum of the 10 t-statistics of the biomarkers under the null hypothesis of no drug effect. By comparing the observed t-statistic of each of the 10 biomarkers to this reference distribution, empirical p-values were computed. As was stated in the SAP prior to unblinding, it was considered likely that experimental manipulations would alter the effect of the drug on two of the primary markers; this was indeed the case and we are only reporting directly on 8 of the 10 primary markers but all 10 are included in the randomization test.
Biomarker measurements: The ELISA and mass spectrometry assays used are described in the following references: Profita et al., J Pharmacol Exp Ther. 300:868-75, 2002; Roberts et al., Clin Chem. 47:418-25, 2001; Dada et al., Expert Rev Mol Diagn. […]

[2] = test system: MPO release by ionomycin-activated neutrophils ex vivo; assay: Study DG-031-201: MPO in whole blood ex vivo after ionomycin activation; set-up: species or system human; conditions: p=0.02
Method: as §1, §2

LDL cholesterol = assay: Study DG-031-201: LDL cholesterol; format: in vivo, human; conditions: highest dose; [4%,12%], p<0.001
Method: as §3
12% for MPO ([2%,21%], p=0.02) at the 750 mg/day dose of DG-031. […] Urine levels of LTE4 increased by 27% in response to the highest dose of DG-031 ([15%,40%], p<0.001). Significant correlation was observed between the change of LTB4 and MPO production (r=0.62 [0.51,0.70], p<0.001) within a period, also when considering only those taking drug where the range of these changes were larger. Correlation was also observed for these variables at baseline. […]

CRP = assay: Study DG-031-203 open label dose ranging: serum CRP; format: in vivo, human
Method: The study also collected information on the dose-related effect of DG-031 on capacity for LTB4 production (ex vivo), plasma MPO, and serum-CRP. […] The pattern observed supported a concentration dependent pharmacologic effect of DG-031 on capacity for LTB4 production measured ex vivo. The effects on LTB4 production amounted to a 30% (p=0.016) and 25% (p=0.094) reduction with the 375 mg BID and 250 mg TID doses, respectively.

Q: Which “Reduction of SAA” value (Amyloid A) does the source give for `O=C(O)[C@@H](c1ccc(OCc2ccc3ccccc3n2)cc1)C1CCCC1` [DG-031, (R)-(+)-alpha-cyclopentyl-4-(2-quinolinylmethoxy)-Benzeneacetic acid] here?
A: Its value is 15%.

Q: What about the “Increase of Lp-PLA2” value (Lp-PLA2) of the same compound?
A: Its value is 9%.

Q: What about the “Reduction of capacity for LTB4 production” value (“Reduction of capacity” below) ([1]; 250 mg BID dose group, p=0.1) of the same compound?
A: Its value is 18%.

Q: What about the LTB4 production ([1]; 250 mg BID, Study 201, NS) of the same compound?
A: Its LTB4 production is −18%.

Q: And the “Reduction of capacity” value ([1]; 250 mg QD dose group, p=0.22)?
A: The value was 13%.

Q: What about the LTB4 production ([1]; 250 mg QD, Study 201, 64 subjects, NS) of the same compound?
A: The LTB4 production was −13%.

Q: And the “Reduction of capacity” value ([1]; 250 mg TID dose group, p=0.008)?
A: Its value is 34%.

Q: What about the LTB4 production ([1]; 250 mg TID, St. 201, p = 0.008) of the same compound?
A: Its LTB4 production is −34% (St. 201).

Q: What about the “Reduction of capacity” value ([1]; 250 mg TID, at steady state Cmin, [0%,56%], p=0.02) of the same compound?
A: The value was 30%.

Q: What about the “Reduction of capacity” value ([1]; combined dose groups of 500 mg and 750 mg TDD, p=0.003) of the same compound?
A: The value was “about 26%”.

Q: What about the “Maximum reduction in MPO production” value ([2]; 750 mg/day, [2%,21%]) of the same compound?
A: Its value is 12%.

Q: What about the “Inhibition of MPO release” value ([2]; combined dose groups of 500 mg and 750 mg TDD) of the same compound?
A: The value was “about 12%”.

Q: And the “Increase in LDL cholesterol” value (LDL cholesterol)?
A: The value was 8%.

Q: What about the “Reduction in CRP levels, high CRP group” value (CRP; 250 mg TID, CRP above median (1.4 mg/L) at entry, P=0.014) of the same compound?
A: Its value is 48%.

Q: And the CRP (CRP; 250 mg TID, St. 203, 1 wk, p = 0.07)?
A: The CRP was 37% (St. 203).

Q: What about the “Reduction of serum CRP” value (CRP; 250 mg TID, after one week of therapy, all subjects, follow-up study 203, [9%,57%]) of the same compound?
A: Its value is 38%.

Q: What about the CRP (CRP; 375 mg BID, Study 203) of the same compound?
A: Its CRP is “No effect”.

Q: And the “Change in CRP” value (CRP; 375 mg BID, all subjects, one week, p=0.94)?
A: Its value is −1%.

Q: What about the “Reduction of CRP, high CRP group” value (CRP; 375 mg BID, p=0.16, not significant) of the same compound?
A: The value was 31%.

Q: What about the CRP (CRP; 375 mg QD, Study 203, 1 wk, p = 0.021) of the same compound?
A: The CRP was −28%.
